We go through 18 molecules from patent US20250034136A1 (Nimbus Wadjet, Inc., priority 2023, published 2025).

SMILES strings stand for the structures. Like-named read-outs stand apart in the source and are kept apart here.

The test system of test [1] is p21 induction in HCT116 cells. Nature of the test: p21 induction in HCT116 cells. To be noted: Homo sapiens, HCT-116, 24 h, read-out: P21_EC50. The class given is cell-based. Summed up: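 HCT116 cells, 2,000/well, treated 24 h at 37 °C with 11-point compound dilutions in duplicate. Fixed, then immunostained for p21 and GAPDH and read by near-IR imaging at 800/700 nm. Normalized to DMSO (low) and reference WRN inhibitor (high) controls; EC50 from non-linear regression.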

For test [2], the target named is WRN (BV08), human Werner helicase (Uniprot Q14191, amino acids 517-1235 with L1074F point mutation) (Homo sapiens (Human), UniProt Q14191, L1074F). Nature of the test: WRN (BV08) ADP-Glo assay. It is filed as biochemical. To be noted: class symbols A-E, read-out: ADP-Glo_hWRN_IC50. On the technique in general: In ADP-Glo the light output rises with the ADP produced.

[3] abbreviates: HCT116 cells, 24 h compound incubation.

Chain of WRN (BV08), human Werner helicase (Uniprot Q14191, amino acids 517-1235 with L1074F point mutation) (Q14191 other isoform, or with tags, fused parts or gaps L1074F (already in the parent)): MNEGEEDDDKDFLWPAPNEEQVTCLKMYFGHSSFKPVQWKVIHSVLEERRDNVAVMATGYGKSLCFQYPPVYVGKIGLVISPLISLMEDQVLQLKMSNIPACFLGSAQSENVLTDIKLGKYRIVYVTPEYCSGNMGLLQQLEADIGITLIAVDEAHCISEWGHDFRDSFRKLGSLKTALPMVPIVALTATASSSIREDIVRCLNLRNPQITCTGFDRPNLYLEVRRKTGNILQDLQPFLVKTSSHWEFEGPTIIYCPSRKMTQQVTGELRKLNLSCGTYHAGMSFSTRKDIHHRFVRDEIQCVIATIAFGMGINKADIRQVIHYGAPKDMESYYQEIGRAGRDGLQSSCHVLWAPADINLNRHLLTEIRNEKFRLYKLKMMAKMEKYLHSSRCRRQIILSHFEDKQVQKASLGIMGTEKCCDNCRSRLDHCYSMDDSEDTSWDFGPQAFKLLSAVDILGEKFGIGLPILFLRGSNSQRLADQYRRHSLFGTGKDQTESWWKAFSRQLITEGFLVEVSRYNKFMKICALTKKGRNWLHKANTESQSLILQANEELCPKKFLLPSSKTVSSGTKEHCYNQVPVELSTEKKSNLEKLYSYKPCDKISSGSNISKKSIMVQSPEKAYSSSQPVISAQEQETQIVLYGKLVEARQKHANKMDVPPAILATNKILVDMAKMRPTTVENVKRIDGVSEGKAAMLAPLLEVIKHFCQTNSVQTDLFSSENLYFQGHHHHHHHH

On to `CCc1c(N2CCN(C(=O)c3ncnc(C)c3O)CC2)c(=O)c2nc(N(C)[C@H]3C[C@H](OC)C3)cnc2n1CC(=O)Nc1ccc(C(F)(F)F)cc1Cl` [I-92, N-(2-chloro-4-(trifluoromethyl)phenyl)-2-(6-ethyl-7-(4-(5-hydroxy-6-methylpyrimidine-4-carbonyl)piperazin-1-yl)-2-(((1r,3r)-3-methoxycyclobutyl)(methyl)amino)-8-oxopyrido[2,3-b]pyrazin-5(8H)-yl)acetamide], for which, in test [1] (setting [3]), the EC50 lay within 500 to 2000 nM. Further, the IC50 in test [2] lay in the range of 5 to 50 nM.
For `CCc1c(N2CCN(C(=O)c3ncnc(C)c3O)CC2)c(=O)c2nc(N3CCC4CC43)cnc2n1CC(=O)Nc1ccc(C(F)(F)F)cc1Cl` (stereo not drawn) [I-93, 2-(2-(2-azabicyclo[3.1.0]hexan-2-yl)-6-ethyl-7-(4-(5-hydroxy-6-methylpyrimidine-4-carbonyl)piperazin-1-yl)-8-oxopyrido[2,3-b]pyrazin-5(8H)-yl)-N-(2-chloro-4-(trifluoromethyl)phenyl)acetamide], in that order: 500 to 2000 nM and 5 to 50 nM.
As to `CCc1c(N2CCN(C(=O)c3ncnc(C)c3O)CC2)c(=O)c2nc(-c3cn[nH]c3)cnc2n1CC(=O)Nc1ccc(C(F)(F)F)cc1Cl` [I-94, N-(2-chloro-4-(trifluoromethyl)phenyl)-2-(6-ethyl-7-(4-(5-hydroxy-6-methylpyrimidine-4-carbonyl)piperazin-1-yl)-8-oxo-2-(1H-pyrazol-4-yl)pyrido[2,3-b]pyrazin-5(8H)-yl)acetamide], the EC50 in test [1] (setting [3]) is greater than 5000 nM. Further, the IC50 in test [2] was 5 to 50 nM.
Turning to `CCc1c(N2CCN(C(=O)c3ncnc(C)c3O)CC2)c(=O)c2nc3nc(C)sc3nc2n1CC(=O)Nc1ccc(C(F)(F)F)cc1Cl` [I-95, N-(2-chloro-4-(trifluoromethyl)phenyl)-2-(6-ethyl-7-(4-(5-hydroxy-6-methylpyrimidine-4-carbonyl)piperazin-1-yl)-2-methyl-8-oxopyrido[2,3-b]thiazolo[4,5-e]pyrazin-5(8H)-yl)acetamide], the EC50 in test [1] was in the range of 500 to 2000 nM. In addition, the IC50 in test [2] lay within 5 to 50 nM.
For `CCc1c(N2CCN(C(=O)c3ncnc(C)c3O)C[C@@H]2C)c(=O)c2nc(N(C)C)cnc2n1CC(=O)Nc1ccc(C(F)(F)F)cc1Cl` [I-98, (S)—N-(2-chloro-4-(trifluoromethyl)phenyl)-2-(2-(dimethylamino)-6-ethyl-7-(4-(5-hydroxy-6-methylpyrimidine-4-carbonyl)-2-methylpiperazin-1-yl)-8-oxopyrido[2,3-b]pyrazin-5(8H)-yl)acetamide], the EC50 in test [1] (setting [3]) is less than 500 nM. Also, the IC50 in test [2] lay in the range of 5 to 50 nM.
As for `CCc1c(N2CCN(C(=O)c3ncnc(C)c3O)C[C@H]2C)c(=O)c2nc(N(C)C)cnc2n1CC(=O)Nc1ccc(C(F)(F)F)cc1Cl` [I-99, (R)—N-(2-chloro-4-(trifluoromethyl)phenyl)-2-(2-(dimethylamino)-6-ethyl-7-(4-(5-hydroxy-6-methylpyrimidine-4-carbonyl)-2-methylpiperazin-1-yl)-8-oxopyrido[2,3-b]pyrazin-5(8H)-yl)acetamide], in test [1] (setting [3]), the EC50 is greater than 5000 nM. Besides, the IC50 in test [2] lay in the range of 5 to 50 nM.
For the molecule `CCc1c(N2CCN(C(=O)c3ncnc(C)c3O)[C@H]3CC[C@@H]32)c(=O)c2nc(C3CC3)cnc2n1CC(=O)Nc1ccc(C(F)(F)F)cc1Cl` [I-100, N-(2-chloro-4-(trifluoromethyl)phenyl)-2-(2-cyclopropyl-6-ethyl-7-((1S,6S)-5-(5-hydroxy-6-methylpyrimidine-4-carbonyl)-2,5-diazabicyclo[4.2.0]octan-2-yl)-8-oxopyrido[2,3-b]pyrazin-5(8H)-yl)acetamide], the EC50 in test [1] (setting [3]) is less than 500 nM. The IC50 in test [2] is no more than 5 nM.
In the case of `CCc1c(N2CCN(C(=O)c3ncnc(C)c3O)[C@H]3CC[C@@H]32)c(=O)c2nc(OC3CC3)cnc2n1CC(=O)Nc1ccc(C(F)(F)F)cc1Cl` [I-102, N-(2-chloro-4-(trifluoromethyl)phenyl)-2-(2-cyclopropoxy-6-ethyl-7-((1S,6S)-5-(5-hydroxy-6-methylpyrimidine-4-carbonyl)-2,5-diazabicyclo[4.2.0]octan-2-yl)-8-oxopyrido[2,3-b]pyrazin-5(8H)-yl)acetamide], the EC50 in test [1] (setting [3]) is less than 500 nM. Further, the IC50 in test [2] is no more than 5 nM.
Turning to `CCc1c(N2CCN(C(=O)c3ncnc(C)c3O)[C@H]3CC[C@@H]32)c(=O)c2nc(N(C)C)cnc2n1CC(=O)Nc1ccc(C(F)(F)F)cc1C` [I-103, 2-(2-(dimethylamino)-6-ethyl-7-((1S,6S)-5-(5-hydroxy-6-methylpyrimidine-4-carbonyl)-2,5-diazabicyclo[4.2.0]octan-2-yl)-8-oxopyrido[2,3-b]pyrazin-5(8H)-yl)-N-(2-methyl-4-(trifluoromethyl)phenyl)acetamide], in test [1] (setting [3]), the EC50 was less than 500 nM. Also, in test [2], the IC50 fell in the range of 5 to 50 nM.
For `CCc1c(N2CCN(C(=O)c3ncnc(C)c3O)[C@H]3CC[C@@H]32)c(=O)c2nc(N(C)C)cnc2n1CC(=O)Nc1ccc(C(F)(F)F)cc1` [I-104, 2-(2-(dimethylamino)-6-ethyl-7-((1S,6S)-5-(5-hydroxy-6-methylpyrimidine-4-carbonyl)-2,5-diazabicyclo[4.2.0]octan-2-yl)-8-oxopyrido[2,3-b]pyrazin-5(8H)-yl)-N-(4-(trifluoromethyl)phenyl)acetamide], in that order: less than 500 nM and 5 to 50 nM.
For `CCc1c(N2CCN(C(=O)c3ncnc(C)c3O)[C@H]3CC[C@@H]32)c(=O)c2nc(N3CCCC3)cnc2n1CC(=O)Nc1ccc(C(F)(F)F)cc1Cl` [I-105, N-(2-chloro-4-(trifluoromethyl)phenyl)-2-(6-ethyl-7-((1S,6S)-5-(5-hydroxy-6-methylpyrimidine-4-carbonyl)-2,5-diazabicyclo[4.2.0]octan-2-yl)-8-oxo-2-(pyrrolidin-1-yl)pyrido[2,3-b]pyrazin-5(8H)-yl)acetamide], in that order: less than 500 nM and 5 to 50 nM.
For `CCc1c(N2CCN(C(=O)c3ncnc(C)c3O)[C@H]3CC[C@@H]32)c(=O)c2nc(N(C)C)c(C)nc2n1CC(=O)Nc1ccc(C(F)(F)F)cc1Cl` [I-107, N-(2-chloro-4-(trifluoromethyl)phenyl)-2-(2-(dimethylamino)-6-ethyl-7-((1S,6S)-5-(5-hydroxy-6-methylpyrimidine-4-carbonyl)-2,5-diazabicyclo[4.2.0]octan-2-yl)-3-methyl-8-oxopyrido[2,3-b]pyrazin-5(8H)-yl)acetamide], in that order: less than 500 nM and no more than 5 nM.
On to `CCc1c(N2CCN(C(=O)c3ncnc(C)c3O)CC2)c(=O)c2nc(N(C)C)cnc2n1CC(=O)NC12CC(C(F)(F)F)(C1)C2` [I-108, 2-(2-(dimethylamino)-6-ethyl-7-(4-(5-hydroxy-6-methylpyrimidine-4-carbonyl)piperazin-1-yl)-8-oxopyrido[2,3-b]pyrazin-5(8H)-yl)-N-(3-(trifluoromethyl)bicyclo[1.1.1]pentan-1-yl)acetamide], for which the EC50 in test [1] (setting [3]) is greater than 5000 nM. Moreover, in test [2], the IC50 was in the range of 100 to 500 nM.
Turning to `CCc1c(N2CCN(C(=O)c3ncnc(C)c3O)CC2)c(=O)c2nc(N(C)C)c(F)cc2n1CC(=O)Nc1ccc(C(F)(F)F)cc1Cl` [I-109, N-(2-chloro-4-(trifluoromethyl)phenyl)-2-(6-(dimethylamino)-2-ethyl-7-fluoro-3-(4-(5-hydroxy-6-methylpyrimidine-4-carbonyl)piperazin-1-yl)-4-oxo-1,5-naphthyridin-1(4H)-yl)acetamide], the EC50 in test [1] is 500 to 2000 nM. Moreover, in test [2], the IC50 was 5 to 50 nM.
On to `CCc1c(N2CCN(C(=O)c3ncnc(C)c3O)[C@H]3CC[C@@H]32)c(=O)c2nc(N(C)C)cnc2n1CC(=O)NC12CC(C(F)(F)F)(C1)C2` [I-110, 2-(2-(dimethylamino)-6-ethyl-7-((1S,6S)-5-(5-hydroxy-6-methylpyrimidine-4-carbonyl)-2,5-diazabicyclo[4.2.0]octan-2-yl)-8-oxopyrido[2,3-b]pyrazin-5(8H)-yl)-N-(3-(trifluoromethyl)bicyclo[1.1.1]pentan-1-yl)acetamide], for which the EC50 in test [1] (setting [3]) was greater than 5000 nM. The IC50 in test [2] was 100 to 500 nM.
For `CCc1c(N2CCN(C(=O)c3ncnc(C)c3O)[C@H]3CC[C@@H]32)c(=O)c2nc(C=C(C)C)nnc2n1CC(=O)Nc1ccc(C(F)(F)F)cc1Cl` [I-111, N-(2-chloro-4-(trifluoromethyl)phenyl)-2-(7-ethyl-6-((1S,6S)-5-(5-hydroxy-6-methylpyrimidine-4-carbonyl)-2,5-diazabicyclo[4.2.0]octan-2-yl)-3-(2-methylprop-1-en-1-yl)-5-oxopyrido[3,2-e] [1,2,4]triazin-8(5H)-yl)acetamide], in that order: less than 500 nM and no more than 5 nM.
In the case of `CCc1c(N2CCN(C(=O)c3ncnc(C)c3O)CC2)c(=O)c2nc3cc(C)oc3nc2n1CC(=O)Nc1ccc(C(F)(F)F)cc1Cl` [I-112, N-(2-chloro-4-(trifluoromethyl)phenyl)-2-(7-ethyl-6-(4-(5-hydroxy-6-methylpyrimidine-4-carbonyl)piperazin-1-yl)-2-methyl-5-oxofuro[2,3-b]pyrido[3,2-e]pyrazin-8(5H)-yl)acetamide], the EC50 in test [1] (setting [3]) was less than 500 nM. The IC50 in test [2] lay in the range of 5 to 50 nM.
Take `CCc1c(N2CCN(C(=O)c3ncnc(C)c3O)CC2)c(=O)c2nc3sc(C)cc3nc2n1CC(=O)Nc1ccc(C(F)(F)F)cc1Cl` [I-113, N-(2-chloro-4-(trifluoromethyl)phenyl)-2-(6-ethyl-7-(4-(5-hydroxy-6-methylpyrimidine-4-carbonyl)piperazin-1-yl)-2-methyl-8-oxopyrido[2,3-b]thieno[2,3-e]pyrazin-5(8H)-yl)acetamide]: in test [1] (setting [3]), the EC50 was less than 500 nM. In addition, in test [2], the IC50 is no more than 5 nM.
